Source: ChEMBL document CHEMBL3045785, “Synthesis and anti-inflammatory activity of 1-acetyl/propanoyl-5-aryl-3-(4-morpholinophenyl)-4,5-dihydro-1H-pyrazole derivatives” (2012)

Legend:
Rattus norvegicus [1] = assay: Anti-inflammatory activity in Rattus norvegicus albino (rat) assessed as inhibition of carrageenan-induced paw edema at 10 mg/kg, ip administered 1 hr prior tocarrageenan-challenge measured after 3 hr relative to control; format: functional; settings: route intraperitoneal
Rattus norvegicus [2] = assay: Anti-inflammatory activity in Rattus norvegicus albino (rat) assessed as inhibition of carrageenan-induced paw edema at 10 mg/kg, ip administered 1 hr prior tocarrageenan-challenge measured after 3 hr relative to indomethacin; format: functional; settings: route intraperitoneal

Row | SMILES | inhibition in vivo at 10 mg/kg (Rattus norvegicus [1]) [%] | inhibition in vivo at 10 mg/kg (Rattus norvegicus [2]) [%]
1 | COc1ccc2c(c1)c(CC(=O)O)c(C)n2C(=O)c1ccc(Cl)cc1 [INDOMETHACIN] | 58.8 | 
2 | CC(=O)N1N=C(c2ccc(N3CCOCC3)cc2)CC1c1cccs1 (stereo not given) | 6.86 | 11.7
3 | CCC(=O)N1N=C(c2ccc(N3CCOCC3)cc2)CC1c1cccs1 (stereo not given) | 1.08 | 1.84
4 | CCC(=O)N1N=C(c2ccc(N3CCOCC3)cc2)CC1c1ccc(OC)c(OC)c1 (stereo not given) | 31.1 | 52.8
5 | CCC(=O)N1N=C(c2ccc(N3CCOCC3)cc2)CC1c1cc(OC)cc(OC)c1 (stereo not given) | 15.9 | 27
6 | COc1cc(OC)cc(C2CC(c3ccc(N4CCOCC4)cc3)=NN2C(C)=O)c1 (stereo not given) | 13.4 | 22.7
7 | COc1cc(C2CC(c3ccc(N4CCOCC4)cc3)=NN2C(C)=O)cc(OC)c1OC (stereo not given) | 3.61 | 6.13
8 | COc1ccc(C2CC(c3ccc(N4CCOCC4)cc3)=NN2C(C)=O)cc1OC (stereo not given) | 5.78 | 9.82
9 | CCC(=O)N1N=C(c2ccc(N3CCOCC3)cc2)CC1c1ccccc1OC (stereo not given) | 6.14 | 10.4
10 | COc1ccccc1C1CC(c2ccc(N3CCOCC3)cc2)=NN1C(C)=O (stereo not given) | 31.1 | 52.8
11 | CC(=O)N1N=C(c2ccc(N3CCOCC3)cc2)CC1c1ccc(Br)cc1 (stereo not given) | 11.2 | 19
12 | CCC(=O)N1N=C(c2ccc(N3CCOCC3)cc2)CC1c1ccc(Br)cc1 (stereo not given) | 18.4 | 31.3
13 | CCC(=O)N1N=C(c2ccc(N3CCOCC3)cc2)CC1c1cc(OC)c(OC)c(OC)c1 (stereo not given) | 1.08 | 1.84
